The values that follow come from patent US6532386B2, “Electrotransort device comprising blades” (Johnson & Johnson Consumer Companies, Inc., priority 1998, dated 2003).

A short description of data set [1]: Transdermal reverse polarity iontophoresis of insulin in pig: blood glucose concentration. Format: in vivo. The procedure: The procedure in Example 3 was repeated, except the stratum corneum of the pig was not disrupted with 400 μm blades and reverse polarity iontophoresis was only conducted for 30 minutes. […] Thus, no insulin was apparently delivered during the iontophoresis process.
The procedure in Example 4 was repeated, except 800 μm blades were pressed against the stratum corneum of a diabetic pig before iontophoresis was performed. The blood glucose in the pig was monitored for 9 hours.
The procedure described in Example 5 was then repeated.
The procedure in Example 5 was repeated except that ethyl cyanoacrylate was applied to the surface of the 800 μm blades before the blades were pressed against the skin of the pig. The blades were held against the skin of the pig for 2 minutes prior to performing iontophoresis to allow the ethyl cyanoacrylate to solidify prior to removal. […] The blood glucose concentration in the pig was monitored for 8 hours. The quantity of insulin delivered was so large that the hyperglycemic pig having an initial blood glucose concentration of 180 mg/dl became seriously hypoglycemic with a blood glucose concentration of 25 mg/dl.

On data set [2], the source says:
The stratum corneum was physically disrupted by repeatedly scratching the skin of a pig with 400 μm blades 20 times, 10 scratchings in one direction, 10 more in a direction perpendicular to the previous direction. Two electrodes were constructed with hollow 3.5 cm by 3.5 cm by 0.5 cm polystyrene vessels each having a volume of about 5 cm^3. A 3 cm by 3 cm by 0.5 mm piece of stainless steel was adhered to the inside of each polystyrene vessel. The electrodes were affixed to the skin of the pig with Dow Corning 355 Medical Adhesive available from Dow Corning of Midland, Mich.
An insulin solution available as Humulin-®(500 units/mL) from Eli Lilly and Co. of Indianapolis, Ind., was injected into the vessel with a hyperdermic needle. Iontophoresis was performed with direct current at a current intensity of 4 mA over about 12 cm^2 of skin. The electric polarity was manually reversed every 5 minutes for 2 hours. The blood glucose concentration and insulin serum concentration in the pig were periodically measured before, during, and after iontophoresis.
The skin on a pig was wiped generously with 200 proof ethanol and allowed to dry to induce skin permeation enhancement. The procedure described in Example 5 was then repeated. The blood glucose concentration and insulin serum concentration in the pig were monitored for 6 hours. […]

Setting [3] is: Example 5: diabetic pig, 800 μm blades, iontophoresis 30 minutes.

Regarding insulin, the “reduction in blood glucose” value in data set [1] (Comparative Example 4: stratum corneum not disrupted with blades, reverse polarity iontophoresis 30 minutes) is on record as “lack of any reduction in blood glucose”. The blood glucose concentration in data set [1] (Example 3: pig skin scratched with 400 μm blades, iontophoresis 4 mA over about 12 cm^2, polarity reversed every 5 minutes for 2 hours, from 140 mg/dl) was 30 mg/dL; in data set [1] (Example 8: hyperglycemic pig, ethyl cyanoacrylate on 800 μm blades, iontophoresis 120 minutes, initial 180 mg/dl), 25 mg/dL. In addition, the “reduction of the blood glucose concentration” value in data set [1] (Example 3: pig skin scratched with 400 μm blades, reverse polarity iontophoresis for 2 hours) is listed as ~80%. Moreover, the “reduction in the blood glucose concentration” value in data set [1] (Example 5: diabetic pig, 800 μm blades pressed against stratum corneum, iontophoresis 30 minutes, monitored 9 hours) is reported as ~37%. In addition, the “blood glucose level maintained” value in data set [1] (setting [3]) was “below 140 mg/dl”. Moreover, the “time blood glucose level was maintained below 140 mg/dl” value in data set [1] (setting [3]) is “over 8 hours”. Moreover, the “reduction of blood glucose” value in data set [1] (Example 6: skin wiped with 200 proof ethanol, 800 μm blades, after 2 hours) was ~50%; in data set [1] (Example 7: skin pre-treated with Nair lotion (calcium thioglycolate), 800 μm blades, iontophoresis 120 minutes, after 3 hours), 30%. In data set [2] (Example 3: pig skin scratched with 400 μm blades, reverse polarity iontophoresis for 2 hours, from 25), the “insulin serum rise (insulin serum concentration)” value is recorded as 590 _IU/ml. Moreover, the serum insulin concentration entry in data set [2] (Example 6: skin wiped with 200 proof ethanol, 800 μm blades, after one hour) is “approximately 60 _IU/ml”.
